Measurements taken from ChEMBL document CHEMBL4706479, “Novel Aryloxyethyl Derivatives of 1-(1-Benzoylpiperidin-4-yl)methanamine as the Extracellular Regulated Kinases 1/2 (ERK1/2) Phosphorylation-Preferring Serotonin 5-HT Receptor-Biased Agonists with Robust Antidepressant-like Activity” (J Med Chem, 2019).
Active and inactive are the calls of the source. No cut-off for these calls is given here.

Legend:
[1] = target: Vasopressin V1a receptor (Homo sapiens) (UniProt P37288); assay: Inhibition of vasopressin V1a receptor (unknown origin) at 10 uM relative to control
Rattus norvegicus [2] = assay: In vivo biased agonist activity at 5-HT1A receptor in rat prefrontal brain cortex assessed as increase in ERK1/2 phosphorylation levels at […], po administered as single dose measured after 30 mins by Alphalisa assay; type: functional, organism-based
[3] = target: Adenosine receptor A2a (Homo sapiens) (UniProt P29274); assay: Inhibition of adenosine receptor A2A (unknown origin) at 10 uM relative to control
[4] = target: cGMP-inhibited 3',5'-cyclic phosphodiesterase 3A (Homo sapiens) (UniProt Q14432); assay: Inhibition of PDE3A (unknown origin) at 10 uM relative to control
Sequence of cGMP-inhibited 3',5'-cyclic phosphodiesterase 3A (Homo sapiens) (Q14432 whole entry): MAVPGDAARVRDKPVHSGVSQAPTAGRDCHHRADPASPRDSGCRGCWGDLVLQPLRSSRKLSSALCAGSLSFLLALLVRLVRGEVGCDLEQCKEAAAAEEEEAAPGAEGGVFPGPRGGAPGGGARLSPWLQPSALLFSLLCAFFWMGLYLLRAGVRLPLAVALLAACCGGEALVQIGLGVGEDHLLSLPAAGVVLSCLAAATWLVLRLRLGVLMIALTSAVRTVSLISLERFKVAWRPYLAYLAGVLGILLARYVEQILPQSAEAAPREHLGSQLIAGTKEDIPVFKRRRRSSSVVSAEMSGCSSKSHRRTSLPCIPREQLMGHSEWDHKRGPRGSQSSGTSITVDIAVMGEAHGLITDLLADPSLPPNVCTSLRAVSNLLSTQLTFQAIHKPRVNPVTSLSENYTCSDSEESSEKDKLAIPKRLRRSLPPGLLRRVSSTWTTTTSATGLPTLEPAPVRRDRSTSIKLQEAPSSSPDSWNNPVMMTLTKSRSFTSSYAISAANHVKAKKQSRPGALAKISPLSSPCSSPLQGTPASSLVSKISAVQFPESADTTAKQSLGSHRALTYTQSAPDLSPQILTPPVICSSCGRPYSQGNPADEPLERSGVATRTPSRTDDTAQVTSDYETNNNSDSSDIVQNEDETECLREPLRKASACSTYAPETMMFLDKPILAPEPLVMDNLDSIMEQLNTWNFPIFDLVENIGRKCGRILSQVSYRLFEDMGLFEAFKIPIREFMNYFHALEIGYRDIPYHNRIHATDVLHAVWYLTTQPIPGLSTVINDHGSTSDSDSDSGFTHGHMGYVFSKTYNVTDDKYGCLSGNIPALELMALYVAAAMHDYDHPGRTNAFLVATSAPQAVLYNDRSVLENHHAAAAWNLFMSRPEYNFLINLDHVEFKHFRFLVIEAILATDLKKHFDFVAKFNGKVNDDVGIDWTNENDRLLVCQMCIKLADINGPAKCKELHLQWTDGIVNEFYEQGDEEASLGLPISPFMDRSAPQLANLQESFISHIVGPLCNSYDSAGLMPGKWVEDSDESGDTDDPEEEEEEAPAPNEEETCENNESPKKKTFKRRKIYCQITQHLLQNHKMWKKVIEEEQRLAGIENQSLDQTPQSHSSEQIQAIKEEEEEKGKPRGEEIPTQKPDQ

[5] = target: T1, Adrenergic receptor alpha-1 (Rattus norvegicus, UniProt P15823+P23944+P43140); assay: Displacement of [3H]-prazosin from alpha1 adrenergic receptor in rat cortex measured after 30 mins by microbeta2 scintillation counting method; type: tissue-based
T1 sequence (P15823 whole entry): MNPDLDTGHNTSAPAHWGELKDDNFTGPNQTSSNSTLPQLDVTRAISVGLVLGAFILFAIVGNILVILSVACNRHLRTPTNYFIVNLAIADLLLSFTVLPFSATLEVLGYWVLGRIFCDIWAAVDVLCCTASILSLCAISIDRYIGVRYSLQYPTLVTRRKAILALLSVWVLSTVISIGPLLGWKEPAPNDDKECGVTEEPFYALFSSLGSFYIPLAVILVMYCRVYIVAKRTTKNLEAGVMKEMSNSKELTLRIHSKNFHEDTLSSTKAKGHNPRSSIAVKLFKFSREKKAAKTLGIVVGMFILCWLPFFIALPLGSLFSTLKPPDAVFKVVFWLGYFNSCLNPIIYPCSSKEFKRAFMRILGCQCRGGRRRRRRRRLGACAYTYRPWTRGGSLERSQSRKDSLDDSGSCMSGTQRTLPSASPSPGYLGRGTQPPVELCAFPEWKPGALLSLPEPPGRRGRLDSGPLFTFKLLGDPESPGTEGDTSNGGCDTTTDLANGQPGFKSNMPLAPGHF
T1 sequence (P23944 whole entry): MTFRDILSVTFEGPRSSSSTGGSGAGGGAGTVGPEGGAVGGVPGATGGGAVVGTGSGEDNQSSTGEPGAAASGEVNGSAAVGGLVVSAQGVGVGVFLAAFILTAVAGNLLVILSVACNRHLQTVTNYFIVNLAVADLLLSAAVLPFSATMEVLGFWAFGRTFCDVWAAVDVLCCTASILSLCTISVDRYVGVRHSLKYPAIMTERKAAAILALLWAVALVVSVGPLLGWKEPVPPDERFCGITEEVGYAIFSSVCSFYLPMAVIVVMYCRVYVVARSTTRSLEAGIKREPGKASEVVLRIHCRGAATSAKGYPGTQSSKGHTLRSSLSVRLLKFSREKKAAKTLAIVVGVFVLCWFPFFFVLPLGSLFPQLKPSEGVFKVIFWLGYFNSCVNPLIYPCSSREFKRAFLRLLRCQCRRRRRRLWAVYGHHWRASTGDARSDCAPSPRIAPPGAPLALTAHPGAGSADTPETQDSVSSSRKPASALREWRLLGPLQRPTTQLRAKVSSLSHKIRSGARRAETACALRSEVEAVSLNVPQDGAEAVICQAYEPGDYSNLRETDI
T1 sequence (P43140 whole entry): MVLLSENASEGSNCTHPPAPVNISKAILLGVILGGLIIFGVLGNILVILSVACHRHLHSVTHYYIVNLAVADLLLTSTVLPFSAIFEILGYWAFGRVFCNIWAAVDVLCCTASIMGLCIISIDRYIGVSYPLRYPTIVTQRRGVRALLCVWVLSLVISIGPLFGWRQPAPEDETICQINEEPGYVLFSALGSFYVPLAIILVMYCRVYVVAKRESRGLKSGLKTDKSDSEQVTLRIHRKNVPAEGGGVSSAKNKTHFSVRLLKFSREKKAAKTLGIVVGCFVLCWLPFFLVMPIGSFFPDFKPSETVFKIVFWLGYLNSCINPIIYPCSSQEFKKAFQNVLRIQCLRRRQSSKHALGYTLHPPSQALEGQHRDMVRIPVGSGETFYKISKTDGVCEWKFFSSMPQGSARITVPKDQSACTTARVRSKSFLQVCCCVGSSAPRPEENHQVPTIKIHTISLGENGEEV

[6] = target: Muscarinic acetylcholine receptor M1 (Homo sapiens) (UniProt P11229); assay: Displacement of [3H]-scopolamine from human recombinant muscarinic M1 receptor stably expressed in CHO-K1 cell membranes at 1 uM measured after 120 mins by microbeta2 scintillation counting analysis relative to control; details: Cell membrane
Sequence of Muscarinic acetylcholine receptor M1 (Homo sapiens) (P11229 whole entry): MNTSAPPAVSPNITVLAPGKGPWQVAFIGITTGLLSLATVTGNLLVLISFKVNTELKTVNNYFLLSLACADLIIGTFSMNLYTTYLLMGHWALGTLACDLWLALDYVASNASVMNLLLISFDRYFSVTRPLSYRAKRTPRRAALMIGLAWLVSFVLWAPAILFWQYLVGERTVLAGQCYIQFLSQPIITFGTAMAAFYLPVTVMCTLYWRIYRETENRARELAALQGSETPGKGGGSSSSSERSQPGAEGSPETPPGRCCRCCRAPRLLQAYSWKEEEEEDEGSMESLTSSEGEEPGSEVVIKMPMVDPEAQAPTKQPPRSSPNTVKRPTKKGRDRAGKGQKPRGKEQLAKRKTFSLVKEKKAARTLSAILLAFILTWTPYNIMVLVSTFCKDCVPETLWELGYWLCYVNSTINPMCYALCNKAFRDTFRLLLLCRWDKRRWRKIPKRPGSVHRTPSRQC

[7] = target: D(1A) dopamine receptor (Homo sapiens) (UniProt P21728); assay: Inhibition of dopamine D1 receptor (unknown origin) at 10 uM relative to control
Sequence of D(1A) dopamine receptor (Homo sapiens) (P21728 whole entry): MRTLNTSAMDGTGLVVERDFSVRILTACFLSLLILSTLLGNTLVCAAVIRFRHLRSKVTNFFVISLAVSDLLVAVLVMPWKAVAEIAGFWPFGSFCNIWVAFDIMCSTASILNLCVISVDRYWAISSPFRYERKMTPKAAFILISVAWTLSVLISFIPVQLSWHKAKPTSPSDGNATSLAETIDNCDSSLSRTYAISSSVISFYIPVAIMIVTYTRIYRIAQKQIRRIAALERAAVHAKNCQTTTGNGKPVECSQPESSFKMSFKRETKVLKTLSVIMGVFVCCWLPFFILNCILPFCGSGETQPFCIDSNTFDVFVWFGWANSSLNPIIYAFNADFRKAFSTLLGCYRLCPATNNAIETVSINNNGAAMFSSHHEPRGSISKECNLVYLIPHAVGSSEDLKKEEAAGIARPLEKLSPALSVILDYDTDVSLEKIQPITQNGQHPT

[8] = target: Alpha-2A adrenergic receptor (Homo sapiens) (UniProt P08913); assay: Inhibition of adrenergic alpha-2A receptor (unknown origin) at 10 uM relative to control
Sequence of Alpha-2A adrenergic receptor (Homo sapiens) (P08913 whole entry): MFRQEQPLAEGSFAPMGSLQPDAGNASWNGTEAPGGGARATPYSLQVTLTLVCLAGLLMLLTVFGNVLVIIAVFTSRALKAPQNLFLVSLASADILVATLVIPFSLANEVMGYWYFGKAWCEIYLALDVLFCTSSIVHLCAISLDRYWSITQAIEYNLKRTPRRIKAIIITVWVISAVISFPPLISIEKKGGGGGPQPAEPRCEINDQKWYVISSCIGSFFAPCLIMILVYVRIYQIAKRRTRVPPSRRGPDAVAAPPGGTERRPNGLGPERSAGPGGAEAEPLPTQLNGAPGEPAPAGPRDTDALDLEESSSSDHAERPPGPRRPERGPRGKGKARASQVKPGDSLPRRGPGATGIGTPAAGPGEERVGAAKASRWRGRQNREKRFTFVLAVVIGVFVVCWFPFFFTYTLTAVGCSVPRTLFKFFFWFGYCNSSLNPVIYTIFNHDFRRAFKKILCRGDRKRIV

[9] = Apparent volume of distribution during terminal phase in Wistar rat at […], po measured after 60 mins by HPLC analysis; type: ADME, organism-based; details: in vivo, dose 2.5 mg/kg, read-out: Vz/F
[10] = target: Alpha-1A adrenergic receptor (Homo sapiens) (UniProt P35348); assay: Inhibition of adrenergic alpha-1A receptor (unknown origin) at 1 uM relative to control
[11] = In vivo biased agonist activity at 5-HT1A receptor in rat prefrontal brain cortex assessed as time required to cause maximum increase in ERK1/2 phosphorylation levels at […], po administered as single dose by Alphalisa assay; type: functional
[12] = Effect on spontaneous locomotor activity in Wistar rat at 0.04 to […], po after 60 mins in presence of 5-HT1A antagonist WAY100635 by open field test; type: organism-based; details: in vivo, 1 h, dose 0.04-2.5 mg/kg
D(2) dopamine receptor = D(2) dopamine receptor (Homo sapiens, UniProt P14416); assay: Inhibition of dopamine D2S receptor (unknown origin) at 10 uM relative to control
Sequence of D(2) dopamine receptor (P14416 whole entry): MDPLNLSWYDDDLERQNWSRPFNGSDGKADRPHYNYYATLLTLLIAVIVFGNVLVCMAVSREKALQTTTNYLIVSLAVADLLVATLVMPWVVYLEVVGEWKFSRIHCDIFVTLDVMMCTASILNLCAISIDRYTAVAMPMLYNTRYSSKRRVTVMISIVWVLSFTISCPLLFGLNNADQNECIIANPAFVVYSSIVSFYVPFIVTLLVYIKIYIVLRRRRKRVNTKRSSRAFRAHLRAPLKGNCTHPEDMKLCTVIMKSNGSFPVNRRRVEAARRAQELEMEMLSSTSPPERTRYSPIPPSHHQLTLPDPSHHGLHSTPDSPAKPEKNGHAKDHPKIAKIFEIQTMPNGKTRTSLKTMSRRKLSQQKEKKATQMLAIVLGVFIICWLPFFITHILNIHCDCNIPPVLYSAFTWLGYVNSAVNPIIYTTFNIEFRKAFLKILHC

[13] = target: Sodium-dependent serotonin transporter (Homo sapiens) (UniProt P31645); assay: Inhibition of serotonin transporter (unknown origin) at 10 uM relative to control
Sequence of Sodium-dependent serotonin transporter (Homo sapiens) (P31645 whole entry, looked up): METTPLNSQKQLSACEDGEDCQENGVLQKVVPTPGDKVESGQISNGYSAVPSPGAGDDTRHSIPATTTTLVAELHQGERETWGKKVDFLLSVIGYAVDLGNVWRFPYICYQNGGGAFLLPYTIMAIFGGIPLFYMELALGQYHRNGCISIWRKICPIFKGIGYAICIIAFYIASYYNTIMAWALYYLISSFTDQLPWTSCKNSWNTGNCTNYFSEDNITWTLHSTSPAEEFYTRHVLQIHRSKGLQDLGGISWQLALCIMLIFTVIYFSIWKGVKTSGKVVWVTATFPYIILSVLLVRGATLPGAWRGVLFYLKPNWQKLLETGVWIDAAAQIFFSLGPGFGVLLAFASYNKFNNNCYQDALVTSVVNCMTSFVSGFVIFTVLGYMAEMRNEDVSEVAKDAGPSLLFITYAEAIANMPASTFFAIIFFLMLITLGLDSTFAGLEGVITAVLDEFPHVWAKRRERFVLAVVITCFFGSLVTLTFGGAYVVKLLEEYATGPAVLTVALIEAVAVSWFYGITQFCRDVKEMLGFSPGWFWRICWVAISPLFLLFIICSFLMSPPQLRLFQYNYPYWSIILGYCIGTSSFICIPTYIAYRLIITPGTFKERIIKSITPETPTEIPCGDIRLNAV

Homo sapiens = species: Homo sapiens; assay: Inhibition of delta 2-type opioid receptor (unknown origin) at 10 uM relative to control
hERG (KCNH2) = hERG (KCNH2) (Homo sapiens, UniProt Q12809); assay: Inhibition of human ERG at 10 uM by patch clamp technique relative to control
Sequence of hERG (KCNH2) (Q12809 whole entry): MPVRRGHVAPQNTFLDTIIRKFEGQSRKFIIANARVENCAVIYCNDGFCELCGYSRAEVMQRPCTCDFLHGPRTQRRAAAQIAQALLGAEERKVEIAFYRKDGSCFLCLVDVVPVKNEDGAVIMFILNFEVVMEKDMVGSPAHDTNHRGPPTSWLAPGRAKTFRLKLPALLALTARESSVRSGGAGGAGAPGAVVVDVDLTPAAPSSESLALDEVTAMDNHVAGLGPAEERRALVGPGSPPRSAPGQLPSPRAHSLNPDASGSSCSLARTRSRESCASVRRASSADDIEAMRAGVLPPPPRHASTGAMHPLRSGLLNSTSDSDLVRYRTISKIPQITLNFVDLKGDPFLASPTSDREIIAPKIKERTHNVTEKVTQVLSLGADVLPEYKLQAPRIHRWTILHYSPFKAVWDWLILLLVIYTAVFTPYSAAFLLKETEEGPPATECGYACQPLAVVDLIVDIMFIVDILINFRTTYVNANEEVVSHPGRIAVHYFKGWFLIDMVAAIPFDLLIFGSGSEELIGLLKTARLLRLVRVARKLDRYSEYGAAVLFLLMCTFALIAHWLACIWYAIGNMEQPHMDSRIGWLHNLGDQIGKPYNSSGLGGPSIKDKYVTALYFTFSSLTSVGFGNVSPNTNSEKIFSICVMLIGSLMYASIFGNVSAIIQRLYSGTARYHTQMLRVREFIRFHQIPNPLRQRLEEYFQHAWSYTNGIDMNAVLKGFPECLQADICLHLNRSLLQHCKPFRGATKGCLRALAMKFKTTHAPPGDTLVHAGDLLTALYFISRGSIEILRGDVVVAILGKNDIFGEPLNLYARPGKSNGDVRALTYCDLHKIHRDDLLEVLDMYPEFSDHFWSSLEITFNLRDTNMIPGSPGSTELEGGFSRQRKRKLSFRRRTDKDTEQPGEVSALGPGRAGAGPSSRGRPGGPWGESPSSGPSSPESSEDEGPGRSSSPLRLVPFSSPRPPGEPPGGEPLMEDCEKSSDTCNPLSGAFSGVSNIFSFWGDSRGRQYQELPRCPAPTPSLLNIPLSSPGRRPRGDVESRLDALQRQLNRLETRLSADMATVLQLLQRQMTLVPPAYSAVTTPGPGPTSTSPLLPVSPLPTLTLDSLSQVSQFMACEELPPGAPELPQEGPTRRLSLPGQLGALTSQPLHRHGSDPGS

Rattus norvegicus [14] = assay: Antidepressant-like activity in Wistar rat assessed as serum concentration causing 50% reduction in immobility time after oral administration of compound and measured after 15 mins by Porsolt-forced swim test; type: functional
[15] = target: Neuronal acetylcholine receptor; alpha4/beta2 (Homo sapiens) (UniProt P17787+P43681); assay: Inhibition of nicotinic acetylcholine receptor alpha4beta2 (unknown origin) at 10 uM relative to control; type: protein-complex assay
[16] = target: Prostaglandin G/H synthase 1 (Homo sapiens) (UniProt P23219); assay: Inhibition of COX1 (unknown origin) at 10 uM relative to control

O=C(c1ccc(F)c(Cl)c1)N1CCC(F)(CNCCOc2ccccn2)CC1
inhibition [1]: 7% | Activity (Rattus norvegicus [2]): Active | inhibition [3]: 11.8% | inhibition [4]: -3.9% | pKi [5]: 6.78 | Activity [6]: < 50% | inhibition [7]: 38.2% | inhibition [8]: 94.3% | Vd/F at 1 h [9]: 35.9 L/kg | inhibition [10]: 87.6% | Time [11]: 15 min | Activity [12]: Non-Toxic | inhibition (D(2) dopamine receptor): 91.3% | inhibition [13]: 0.9% | inhibition (Homo sapiens): 7.2% | inhibition at 10 µM (hERG (KCNH2)): 46.5% | EC (Rattus norvegicus [14]): 6.76 ng/mL | inhibition [15]: -5.4% | inhibition [16]: 11.9%
